From patent publication US10613180B2, “Methods and systems of assessing tissue vascular permeability using non-labeled dextran” (priority 2014, dated 2020) come the findings set out here.

One assay has as its system tumor. The assay is described as follows: In vivo and ex vivo fluorescence imaging and immunohistochemistry with dextran-FITC. The arrangement: species or system mice. To be noted: after TNF-α. From the text:
The changes of mean ROI CEST contrast of tumor and kidney are plotted on the right. […] The dextran can be also imaged by its conjugated fluorescein (FITC).

Another assay concerns CT26 colon tumors. The assay is described as follows: In vivo CEST MRI of 150 kD dextran uptake before and after TNF-α. Also noted: species or system mice. Conditions: TNF-α 1 μg per mouse, one hour after 150 kD dextran.

Protocol for CT26 colon tumors: For dextran of 150 kD, a slightly different protocol was used (FIG. 3a). […] One hour later, TNF-α (1 μg per mouse) was injected. The CEST MRI was acquired using a series of z spectral imaging acquisition (from −3 ppm to +3 ppm, step=0.2 ppm). Each acquisition took ˜16 minutes. For all the studies, a fat-suppressed RARE sequence with a continuous wave pre-saturation pulse B1=1.8 μT and 3 seconds (TR/TE=5000/5 ms, RARE factor=10)^2 was used. Data were processed using custom-written MATLAB scripts. After correcting for B0 inhomogeneity using the WASSR method, the in vivo CEST contrast was quantified by averaging the MTRasym=(S^−Δω−S^+Δω)/S0 from 0.8 to 1.2 ppm.^2

TNF-α: the “dextran uptake in tumors by fluorescence imaging and immunohistochemistry” value in the assay on tumor was “marked increased dextran uptake in tumors”. The “effect of TNF-α on dextran accumulation in tumor and kidney” value with CT26 colon tumors is recorded as “increased vascular permeability”.
